Patent publication US12225904B2, “Phenylpyrazole compound and method for controlling plant disease” (SUMITOMO CHEMICAL COMPANY, LIMITED, priority 2019, dated 2025)

Tested on: soybean powdery mildew (Microsphaera diffusa)
Test: Test Example 13: control test against soybean powdery mildew, foliar spray after inoculation
Assay type: in vivo
Settings: 200 ppm foliar spray 2 days after inoculation; soybean cv Kurosengoku

In the case of CCS(=O)(=O)n1ccc(-c2ccc(Cl)c([N+](=O)[O-])c2)n1 [compound 36], the “lesion area compared to the lesion area in an untreated soybean” value was ≤ 30%.
